Ends that are not written are not given here. * marks the point of attachment. Biotin = O=C1N[C@H]2[C@H](CS[C@H]2CCCCC(=O)*)N1
Assays:
[1] = tested on: Cpe30 peptide; assay type: binding, Clostridium perfringens
[2] = molecular target: Biotin-Cpe30 (Clostridium perfringens) (UniProt P01558); test: SPR
[3] = molecular target: Cpe17 (last C-terminal 17 amino acids of Cpe), biotinylated (Clostridium perfringens) (UniProt P01558); test: SPR
[4] = molecular target: T1, GST-claudin-4, full length (mouse, UniProt O35054 1-210); test: SPR
T1 sequence: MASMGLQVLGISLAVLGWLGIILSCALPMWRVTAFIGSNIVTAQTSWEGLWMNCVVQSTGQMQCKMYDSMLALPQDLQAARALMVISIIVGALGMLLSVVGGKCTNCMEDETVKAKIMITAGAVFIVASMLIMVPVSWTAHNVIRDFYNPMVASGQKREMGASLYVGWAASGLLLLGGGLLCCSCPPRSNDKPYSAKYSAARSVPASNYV

(138)AHNVIRDFYNPM VASGQKREMGASL(160) [B-Ecl2]
Binding of immobilized Ecl2 peptide to Cpe30, in words [1]: does not bind

AHNVIRDFYNPMVASGQKREMGASL (disulfide (positions not given here)) [B-lariat-Ecl2]
Binding of immobilized Ecl2 peptide to Cpe30, in words [1]: does not bind

AHNVIRDFYNPMVASGQKREMGASL [B-Ecl2-B]
Binding of immobilized Ecl2 peptide to Cpe30, in words [1]: does not bind

GST-Cldn-4.R4 (GST fused to claudin-4 from Ecl2 through the C terminus) (domain or fragment)
Kd [2]: 2.56 nM | Kd [3]: 1.57 nM

Biotin-SLDAGQYVLVMKANSSYSGNYPYSILFQKF [Biotin-Cpe30]
binding result [4]: binds

— publication PMC2576538 (The Journal of Biological Chemistry, 2008)
